Test results taken from patent US8546321B2, “IL-4-derived peptides for modulation of the chronic inflammatory response and treatment of autoimmune diseases” (Kobenhavns Universitet, priority 2008, dated 2013).
Like-named read-outs stand apart in the source and are kept apart here.

Legend:
[1] = test system: cerebellar granular neurons (CGN); assay: Neurite outgrowth assay in cultures of cerebellar granule neurons; format: cell-based, Wistar rats; conditions: P7 CGN, peptides added after plating, 24 h
Experimental: Cerebellar granular neurons (CGN) were prepared from 3 or 7 postnatal (P) day Wistar rats (Charles River, Sulzfeld, Germany or Taconic, Ejby, Denmark). Cerebella were cleared of meninges and blood vessels, roughly homogenized by chopping, and trypsinized with trypsin from Sigma-Aldrich (Brøndby, Denmark). The neurons were washed in the presence of DNAse 1 and soybean trypsin inhibitor (Sigma-Aldrich), and cellular debris was pelleted by centrifugation before plating. For single-cell culture experiments, P7 CGNs were plated at a density of 10,000 cells/well onto uncoated eight-well Lab-Tek chamber slides (NUNC, Slangerup, Denmark) in Neurobasal-A medium supplemented with 0.4% (w/v) BSA. Peptides at various concentrations were added to the medium immediately after plating, and cells were maintained at 37° C. and 5% CO2 for 24 h. Cultures then were fixed, blocked and incubated with polyclonal rabbit antibody against rat GAP-43 (Chemicon, Temecula, Calif., USA) followed by incubation with secondary Alexa Fluor488 goat anti-rabbit antibody (Molecular Probes, Eugene, Oreg., USA) as previously described (Neiiendam et al., 2004). The immunostained cultures were all recorded by computer-assisted fluorescence microscopy using a Nikon Diaphot inverted microscope (Nikon, Japan) equipped with a Nikon Plane 20× objective. Images were captured with a charge-coupled device video camera (Grundig Electronics, Nurnberg, Germany) using the software package Prima developed at the Protein Laboratory (University of Copenhagen, Copenhagen, Denmark). The length of neuronal processes per cell was estimated using the software package Process Length developed at the Protein Laboratory (Ronn et al. 2000). For estimation of neurite outgrowth, at least 200±20 cells were processed for each group in each individual experiment.

[2] = subcutaneous administration, cited from earlier work
[3] = repeated daily dosing; cited from earlier work
[4] = test system: malignancies; conditions: in this dose and schedule (Whitehead et al., 1998); cited from earlier work
[5] = test system: psoriasis; conditions: correcting imbalances in immune functions (Martin 2003); cited from earlier work

## AERLKTIMREKYSKS (Variant of fragment of interleukin-4) [SEQ ID NO: 4]
[1]
  neuritogenic response from primary neurons: induce a neuritogenic response

## AITLQEIIKTLNSA (Variant of fragment of interleukin-4) [SEQ ID NO: 2]
[1]
  neuritogenic response from primary neurons: induce a neuritogenic response

## AQFHRHKQLIRFLKRA (Variant of fragment of interleukin-4) [SEQ ID NO: 1]
[1]
  neuritogenic response from primary neurons: induce a neuritogenic response

## ARFLKRLDRNLWGG (Variant of fragment of interleukin-4) [SEQ ID NO: 3]
[1]
  neuritogenic response from primary neurons: induce a neuritogenic response

## rhulL-4: Escherichia coli-derived recombinant human interleukin-4
[2]; as high as 10 μg/kg administered 3 times/week
  safety and tolerability: safe and well tolerated
[2]; doses as high as 5 μg/kg/day
  safety and tolerability: safe and well tolerated
[3]
  adverse effects: a number of adverse effects
[4]
  antitumor activity: only low antitumor activity
[5]
  benefit in patients with psoriasis: beneficial
